In patent US11730731B2 (INVENTAGE LAB INC., priority 2021, dated 2023):

Tests used:
[1] = test system: murine collagen-induced arthritis (CIA); experiment: Clinical evaluation of arthritis activity (clinical arthritis index, incidence) in collagen-induced arthritis mice; format: in vivo, mouse; parameters: CAI-AUC Mean / Incidence-AUC Mean: unit not given here; conditions: for CAI Mean: naltrexone (Revia Tablet) 10 mg/kg oral once/day
Procedure: As a model of murine collagen-induced arthritis (CIA), 6 to 10 week-old male mice of DBA/1 J strain was prepared. […] The number of experimental animals per cage was kept under 6, and a cage was exchanged twice a week and feed was supplied.
A 2 mg/mL collagen solution was prepared by dissolving bovine type 2 collagen in 10 mM acetic acid. After emulsifying by mixing 2 mg/mL of Complete Freund's adjuvant and collagen solution in a 1:1 (v/v) ratio, it was intradermally injected into the tail of mouse at a dose of 100 μl/animal (first immunization, day 0). After emulsifying by mixing incomplete Freund's adjuvant […] and collagen solution in a 1:1 (v/v) ratio on the 21th day, it was intradermally injected into the tail of mouse at a dose of 100 μl/animal (the secondary immunization, on the 21th day). After that, mice were randomly divided into groups and assigned to experimental groups.
The refrigerated test substance was standed at room temperature 1 hour before administration and dissolved in 0.15 mL of water for injection. 0.15 mL of the test substance was filled using a syringe with a 21 G needle. The needle was changed to 23 G within 2 minutes after filling and the mice were injected.
(§1) After administration of the test substance to the collagen-induced arthritis mouse model, the occurrence and level of inflammation were regularly observed from the date of group separation to the end of the experiment (the 41th day). Inflammation level was given a score of 0 to 4 for each paw according to the criteria in Table 4 below, and the sum was used as a clinical arthritis index (CAI).
When the clinical index of each paw was 2 score or higher, it was determined that arthritis occurred, and the incidence was defined as 100% when arthritis occurred in […].
as §1, with “end date” for “end”, “above,” for “below,”
as §1, with “above,” for “below,”

[2] = test system: murine collagen-induced arthritis (CIA); experiment: Histological estimation of hind paw tissue, hematoxylin/eosin staining, CIA mice; format: in vivo, mouse; parameters: scale not given here; conditions: day 41
Procedure: (§2) Mice were sacrificed on the 41th day, which is the end of the experiment, and the tissues of the hind paws were stained with hematoxylin/eosin. Hematoxylin/eosin staining was used to evaluate the activity of inflammation in the arthritic tissue, and toluidine blue staining was performed to confirm the histological therapeutic effect on cartilage destruction.
The hind paw tissue of the mouse was stained with hematoxylin/eosin, and 4 sites (100 magnification) for each tissue were photographed. Two or more investigators evaluated the items of synovial hyperplasia, pannus formation, cartilage destruction, and bone erosion for hematoxylin/eosin staining. The scoring criteria for each item were described in Table 7, and the average score of 4 sites was calculated as the score of each tissue.
Hematoxylin/eosin staining was performed and evaluated in the same manner as in Example 2.3. (1) above, and the score for items of synovial hyperplasia, pannus formation, cartilage destruction, and bone erosion was calculated by scoring each tissue as the average of the score of 4 sites based on Table 7 above.

[3] = test system: murine collagen-induced arthritis (CIA); experiment: Histological estimation of hind paw tissue, toluidine blue staining, CIA mice; format: in vivo, mouse; parameters: scale not given here; conditions: day 41
Procedure: as §2
The hind paw tissue of the mouse was stained with toluidine blue, and 4 sites (100 magnification) for each tissue were photographed. Two or more investigators evaluated the items of matrix staining, surface regularity, and cartilage thickness. The scoring criteria for each item was described in Table 9, and the average score of 4 sites was calculated as the score of each
(§3) In the same manner as in Example 2.3. (2), the hind paw tissue of the mouse was stained with toluidine blue, and items such as photographing and matrix staining, surface regularity, and cartilage thickness were evaluated. The scoring criteria for each item were described in Table 9, and the average score of 4 sites was calculated as the score of each tissue.
as §3, with “2.3. (2) above,” for “2.3. (2),”, “item is” for “item were”

[4] = Safety assessment in vivo by body weight, CIA mice; conditions: Example 3, CIA mouse, MTX 1 mg/kg ip twice/week, Xeljanz 10 mg/kg oral once/day, MTX 1 mg/kg + Q-DDS 3 mg/mouse; for D23 body weight Mean: day 23 (baseline); for D41 body weight Mean: day 41; for Change of body weight (%, D23 body weight 100%) Mean: day 41 vs day 23
Procedure: The safety in vivo of the test substance was evaluated by measuring the body weight of mouse in each administration group of Example 4.1.
For the safety evaluation of the test substance, the body weight of mouse was measured daily from before the start of administration (The 23th day) to just before the end of administration (The 41th day), and the body weight (%) of the mouse for each administration group over the time (day) and the body weight on the 41th day were shown in FIG. 16A, FIG. 16B and Table 27.

[5] = test system: murine collagen-induced arthritis (CIA); experiment: Imaging evaluation of arthritis using micro-CT, CIA mice; format: in vivo; conditions: Example 3, CIA mouse; MTX 1 mg/kg ip twice/week; Xeljanz 10 mg/kg oral once/day; MTX 1 mg/kg + Q-DDS 3 mg/mouse
Procedure: (§4) The radiographs were 3D rendered using the Quantum FX μCT imaging system (Perkin Elmer, MA), and then the radiological score was evaluated, and the bone volume ratio (Bone volume [BV]/Tissue volume [Tissue volume; TV]) and bone surface density (Bone surface area (BS)/Bone volume (BV)) were also measured. Two or more investigators performed blind evaluation for joint destruction, and the indicators in Table 17 below were used as the scoring criteria. The average value of the researchers' blind evaluation data was used as the score, and the average score of the paw tissue was calculated as the score of each group.
as §4, with “[BV]/Tissue” for “[BV]/Tissue volume [Tissue”, “TV)” for “TV])”, “(BV)), and cortical bone thickness” for “(BV))”, “researchers” for “investigators”, “above” for “below”

[6] = Example 2, CIA mouse, methotrexate 1 mg/kg ip twice/week, naltrexone 10 mg/kg oral once/day, naltrexone DDS 3 mg/mouse sc once on day 23
[7] = Example 2, CIA mouse, methotrexate 1 mg/kg ip twice/week, naltrexone DDS 3 mg/mouse sc once on day 23
[8] = Example 3, CIA mouse, MTX 1 mg/kg ip twice/week, Xeljanz 10 mg/kg oral once/day, MTX 1 mg/kg + Q-DDS 3 mg/mouse
[9] = Example 2, CIA mouse, MTX 1 mg/kg, naltrexone 10 mg/kg oral, naltrexone DDS 3 mg/mouse

Row | Structure (SMILES) | Incidence (%) Mean [1, 6] [%] | CAI Mean [1, 7] | CAI (D41) Mean [1, 8] | CAI-AUC Mean [1, 8] | Incidence (%) Mean [1, 8] [%] | Incidence-AUC Mean [1, 8] | Bone erosion score Mean (hematoxylin/eosin) [2, 9] | Cartilage destruction score Mean (hematoxylin/eosin) [2, 9] | Pannus formation score Mean (hematoxylin/eosin) [2, 9] | Synovial hyperplasia score Mean (hematoxylin/eosin) [2, 9] | Bone erosion score Mean (hematoxylin/eosin) [2, 8] | Cartilage destruction score Mean (hematoxylin/eosin) [2, 8] | Pannus formation score Mean (hematoxylin/eosin) [2, 8] | Synovial hyperplasia score Mean (hematoxylin/eosin) [2, 8] | Cartilage thickness score Mean (toluidine blue) [3, 9] | Matrix staining score Mean (toluidine blue) [3, 9] | Surface regularity score Mean (toluidine blue) [3, 9] | Cartilage thickness score Mean (toluidine blue) [3, 8] | Matrix staining score Mean (toluidine blue) [3, 8] | Surface regularity score Mean (toluidine blue) [3, 8] | other results
1 | CN(Cc1cnc2nc(N)nc(N)c2n1)c1ccc(C(=O)N[C@@H](CCC(=O)O)C(=O)O)cc1 [Methotrexate, methotrexate] | 20.83 | 5.92 | 6.35 | 71.20 | 30.0 | 170.0 | 0.08 | 0.50 | 0.14 | 0.91 | 0.92 | 1.02 | 0.92 | 1.38 | 0.11 | 0.61 | 0.34 | 0.38 | 1.15 | 1.02 | CAI-AUC Mean [1, 6]: 46.6; Incidence-AUC Mean [1, 6]: 185.4; D23 body weight Mean [4]: 22.7 g; D41 body weight Mean [4]: 23.8 g; Change of body weight (%, D23 body weight 100%) Mean [4]: 104.7%; Bone surface area/bone volume (mm^−1) Mean (micro-CT) [5]: 6.12 mm^−1; Bone volume/tissue volume (%) Mean (micro-CT) [5]: 31.25%; Radiological score Mean (joint destruction, micro-CT) [5]: 1.67
2 | O=C1CC[C@@]2(O)[C@H]3Cc4ccc(O)c5c4[C@@]2(CCN3CC2CC2)[C@H]1O5 [Naltrexone, 17-(cyclopropylmethyl)-4,5α-epoxy-3,14-dihydroxymorphinan-6-one] | 41.67 | 8.25 | – | – | – | – | 0.58 | 0.98 | 0.58 | 1.27 | – | – | – | – | 0.39 | 0.92 | 0.80 | – | – | – | –
3 | C[C@@H]1CCN(C(=O)CC#N)C[C@@H]1N(C)c1ncnc2[nH]ccc12 [Xeljanz ®, Tofacitinib] | – | – | 6.25 | 74.50 | 27.5 | 263.8 | – | – | – | – | 1.13 | 1.38 | 1.13 | 1.56 | – | – | – | 0.56 | 1.42 | 1.13 | D23 body weight Mean [4]: 21.7 g; D41 body weight Mean [4]: 21.6 g; Change of body weight (%, D23 body weight 100%) Mean [4]: 99.6%; Bone surface area/bone volume (mm^−1) Mean (micro-CT) [5]: 6.52 mm^−1; Bone volume/tissue volume (%) Mean (micro-CT) [5]: 25.27%; Radiological score Mean (joint destruction, micro-CT) [5]: 2.08
